Data: US20250268849A1, “TREATMENT OF LOW-GRADE GLIOMA WITH MIRDAMETINIB” (St. Jude Children’s Research Hospital, Inc., priority 2022, published 2025)

Test system: Low-Grade Glioma (LGG)
Assay: Phase I/II trial of single agent mirdametinib in patients with low-grade glioma
Assay type: in vivo, human
Procedure: Example 1: Phase I/II Evaluation of Single Agent Mirdametinib, a Brain-Penetrant MEK1/2 Inhibitor, for the Treatment of Children, Adolescents, and Young Adults With Low-Grade Glioma (LGG) A multi-arm phase I/II trial of mirdametinib is currently being conducted in patients ≥2 and <25 years with LGG. Phase I requires participants have no prior exposure to MEK inhibitors and recurrent/progressive disease with biopsy-proven evidence of MAPK pathway activation. Three escalating dose levels (2 mg/m^2/dose BID, 2.5 mg/m^2/dose BID and 3 mg/m^2/dose BID) are planned using a rolling 6 design. The median age enrolled in the study is 10 years (3-21 years old). 10 patients have somatic gene rearrangements (7 BRAF, 1 MYB, 1 RAF1, 1 FGFR1); 1 patient has a NF1 germline mutation; and 3 patients have metastatic disease. […] Of the 11 patients having a somatic gene rearrangement or NF1, 4 patients with BRAF and the 1 patient with FGFR1 received a dose of 2 mg/m^2 BID. The remainder of the 11 patients (3 BRAF, 1 MYB, 1 NF1, and 1 RAF1) received a dose of 2.5 mg/m^2 BID.

O=C(NOC[C@H](O)CO)c1ccc(F)c(F)c1Nc1ccc(I)cc1F (single isomer, unassigned) [mirdametinib]
Minor Response (MR), patients (decrease by 25-50%) (2 mg/m^2 BID (N = 5)): 4 (80.0%)
Partial Response (PR), patients (decrease in tumor size by 50-75%) (2 mg/m^2 BID (N = 5), patients with somatic gene rearrangement or NF1, as of cut-off date): 1 (20.0%)
Minor Response (MR), patients (decrease by 25-50%) (2.5 mg/m^2 BID (N = 6)): 3 (50.0%)
Stable Disease (SD), patients (stable tumor size or decrease up to 25%) (2.5 mg/m^2 BID (N = 6)): 3 (50.0%)
Minor Response (MR), patients (decrease by 25-50%) (Total (N = 11)): 7 (63.6%)
Stable Disease (SD), patients (stable tumor size or decrease up to 25%) (Total (N = 11)): 3 (27.3%)
Partial Response (PR), patients (decrease in tumor size by 50-75%) (Total (N = 11), 2 and 2.5 mg/m^2 BID pooled): 1 (9.1%)
dose-limiting toxicities (dose level 1 (2 mg/m^2)): No dose-limiting toxicities occurred
tolerability (dosed continuously, recurrent/progressive pediatric LGG): well-tolerated
patients with minor response (>25%-<50% decrease) (patients who completed at least one follow-up disease evaluation): Four of the six patients
MEK related retinopathy or cardiopathy (phase I): No MEK related retinopathy or cardiopathy has been observed
disease progressions (phase I): No disease progressions have occurred
treatment-related adverse events, grade (phase I, dose levels 1 and 2): Only grade 1 and 2
